From patent publication EP0089939A1, “Compositions for therapeutic or diagnostic use containing oligosaccharides” (BioCarp AB, priority 1982, dated 1983) come the findings set out here.

In assay [1] the test system is N.gonorrhoeae. As to the kind of experiment: Inhibition of adherence of N. gonorrhoeae to vaginal cells. In kind it is cell-based. As to conditions: human vaginal cells, 50 cells counted; for reduction of the number of adhering bacteria: 5 mg/ml oligosaccharide. As to the method:
Cells: Vaginal cells from healthy women in fertile age not having used hormonal preparations and werein proliferation phase were tested. Cells were collected from rear vaginal fornix with a wooden spatula and suspended in RPMI 1640 in a concentration of 10^5 cells/ml.
Gonococci: International reference strain 3 from Neisseriaavd. Statens Seruminstitut, Copenhagen, Denmark, suspended in cell cultivation medaium RPMI 1640 (Flow Ltd.) in a concentration of 10^9 bacteria/ml.
Oligosaccharides: β-D-Galp-(1-3)- -D-GalNAc-(1-0)-Me (1) β-D-Galp-(1-3)- -D-GalNAc-(1-0)-Me (2)
(§1) Procedure: 1 ml of […] containing 0 of (1), 5 mg/ml of (1) and 0.5 mg/ml of (1) and 5 mg/ml of (2), respectively, were incubated with 0.5 ml bacterial suspension at 37°C for 30 minutes. Vaginal cells (1 ml) were incubated with the above preincubated bacterial suspensions at 37°C for 45 minutes. The incubated suspensions were filtered through a filter (pore size 12 µ) and washed 3 times with PBS. The filter was pressed against microscope slides for a few seconds, the microscope slides being then fixed in methanol for 10 minutes. The microscope slides were dried in air and coloured with acridine orange for 2 minutes. After washing and drying in air the slides were studied by means of fluorescence microscopy. The number of bacteria adhering per cell was counted. In each test 50 vaginal cells were counted.

Assay [2] deals with N.meningitidis. As to the kind of experiment: Inhibition of adherence of N. meningitidis to buccal mucosa cells. In kind it is cell-based. As to conditions: human buccal mucosa cells, N.meningitidis strain 3K, 45 min. As to the method:
as §1
The procedure of EXAMPLE 2 was repeated but in this case cells were collected from young healthy women by scraping the Buccal Mucosae with a wooden spatula. The bacterium used was N.meningitidis, international test strain 3K, Statens Seruminstitut, Copenhagen, Denmark.

Assay [3] relates to N.gonorrhoeae. Put plainly: Inhibition of haemagglutination of human erythrocytes by N. gonorrhoeae. In kind it is cell-based. As to conditions: Neisseria gonorrhoeae, Erythrocyte; human erythrocytes (O1Rh+); fimbriated N.gonorrhoeae; read after 2-4 hours at room temperature; read-out: Minimum concentration of inhibitor resulting in complete inhibition. The procedure: (§2) In the test there is used a strain of N. gonorrhoeae (international reference strain 3 from Neisseriaavd. Statens seruminstitutt, Copenhagen, Denmark. and a fresh strain of the same species isolated at the Bacteriological Central Laboratory, Lunds Hospital, Lund, Sweden). The bacteria were cultivated on a special gonococc medium, see Mardh, P.A., Martensson, D, Soltesz, L.V. "An effective, simplified medium for the culture of N. gonorrhoeae". Sex.Trans.Dis. Vol. 5, pp. 10-13, 1978, at + 37°C for 18 hours. The bacterial culture was slurried in PBS, pH 7.2 to a density of 109 bacteria/ml.
(§3) Haemagglutination was performed using erythrocytes from sheep or man (O1Rh+) which were washed with PBS and suspended to a concentration of 1 % v/w in PBS, pH 7.2. The agglutination tests were-performed so that 25 µl of the bacterial suspension was titrated in PBS by using two-fold […] steps. Then 25 µl of the erythrocyte suspension which had been made 1 % were added. The haemagglutination titre (Hu) was determined after incubating the plates (microtitre plates, Limbo Sc. Comp. Inc.) for 2-4 hours in room temperature.
(§4) In the haemagglutination-inhibition tests there were used serial dilutions having the relevant inhibitor (50 µl/well) and […] bacterial suspension diluted to contain twice the lowest haemagglutination titre. The plates were incubated for 30 minutes at +37°C, 25 µl of erythrocyte suspension being then added to each well. The result was read after 2-4 hours incubation at room temperature.

Assay [4] has as its system N. gonorrhoeae. Put plainly: Inhibition of haemagglutination of sheep erythrocytes by N. gonorrhoeae. The class given is cell-based. As to conditions: Neisseria gonorrhoeae, Erythrocyte, fimbriated N. gonorrhoeae, read after 2-4 hours at room temperature, read-out: Minimum concentration of inhibitor resulting in complete inhibition of haemagglutination. As to the method: as §2, §3, §4

Assay [5] relates to N.gonorrhoeae. As to the kind of experiment: Disinfection: removal of bacteria from an infected surface. As to conditions: 0.1 percent by weight aqueous solution applied with a cotton pad. The procedure: By disinfection is here primarily intended removal of bacteria from a surface, for example a wound.
A 0.1 percent by weight aqueous solution of the compound β-D-Galp-(1-4)-D-GNAc is prepared and applied by means of a cotton pad onto a surface infected by N.gonorrhoeae.

Consider `COC1O[C@H](CO)[C@H](O)[C@H](O[C@@H]2O[C@H](CO)[C@H](O)[C@H](O)[C@H]2O)[C@H]1NC(C)=O` (stereo partly drawn) [(1), β-D-Galp-(1-3)- -D-GalNAc-(1-0)-Me], for which the effect on adherence result in assay [1] (0.5 mg/ml oligosaccharide) is listed as “did not significantly effect adherence”. In addition, the “reduction of the number of adhering bacteria” value in assay [1] (45 min) is listed as 87; in assay [2] (0.5 mg/ml oligosaccharide), “about 15%”; in assay [2] (5 mg/ml oligosaccharide), 90%.

On to `COC1O[C@H](CO)[C@H](O)[C@H](O[C@@H]2O[C@H](CO)[C@H](O)[C@H](O)[C@H]2O)[C@H]1NC(C)=O` (stereo partly drawn) [(2), β-D-Galp-(1-3)- -D-GalNAc-(1-0)-Me], for which, in assay [1], the “reduction of the number of adhering bacteria” value was “did not significantly effect adherence”.

Take `CC(=O)N[C@H]1[C@H](O[C@H]2[C@@H](O)[C@@H](CO)O[C@H](O[C@@H]3[C@H](O)[C@@H](O)[C@H](O[C@H]4[C@H](O)[C@@H](O)C(O)O[C@@H]4CO)O[C@@H]3CO)[C@@H]2O)O[C@H](CO)[C@H](O)[C@@H]1O` (stereo partly drawn) [β-D-GalNAc-(1-3)-α-D-Galp-(1-4) -β-D-Galp-(1-4)-D-Glc]: in assay [3], the minimal effective concentration is greater than 5000 µg/mL.

For `CC(=O)N[C@H]1C(O)O[C@H](CO)[C@H](O)[C@@H]1O[C@@H]1O[C@H](CO)[C@H](O)[C@H](O)[C@H]1O` (stereo partly drawn) [β-D-Galp-(1-3)-D-GalNAc], the minimal effective concentration in assay [3] is 800 µg/mL; in assay [4] it was 900 µg/mL.

As for `OC[C@H]1O[C@@H](O[C@H]2[C@@H](O)[C@@H](CO)OC(O)[C@@H]2O)[C@H](O)[C@@H](O)[C@H]1O` (stereo partly drawn) [β-D-Galp-(1-3)-D-Gal], the minimal effective concentration in assay [3] is greater than 5000 µg/mL.

`CO[C@H]1O[C@H](CO)[C@H](O)[C@H](O[C@@H]2O[C@H](CO)[C@H](O)[C@H](O)[C@H]2O)[C@H]1NC(C)=O` [β-D-Galp-(1-3)-α-D-GalNAc-(1-O)Me]: the minimal effective concentration in assay [4] worked out at 150 µg/mL.

Regarding `CO[C@H]1O[C@H](CO)[C@H](O)[C@H](O[C@@H]2O[C@H](CO)[C@H](O)[C@H](O)[C@H]2O)[C@H]1NC(C)=O` [β-D-Galp-(1-3)-α-D-GalNAcp-(1-O)Me, Methyl 2-acetamido-2-deoxy-3-0-(β-D-galactopyranosyl)-a--D-galactopyranoside], the minimal effective concentration in assay [3] was 200 µg/mL.

For `CO[C@@H]1O[C@H](CO)[C@H](O)[C@H](O[C@@H]2O[C@H](CO)[C@H](O)[C@H](O)[C@H]2O)[C@H]1NC(C)=O` [β-D-Galp-(1-3)-β-D-GalNAc-(1-O)Me], the minimal effective concentration in assay [4] is greater than 2000 µg/mL.

Regarding `CO[C@@H]1O[C@H](CO)[C@H](O)[C@H](O[C@@H]2O[C@H](CO)[C@H](O)[C@H](O)[C@H]2O)[C@H]1NC(C)=O` [β-D-Galp-(1-3)-β-D-GalNAcp-(1-O)Me, Methyl 2-acetamido-2-deoxy-3-0-(B-D-galaetopyranosyl)--β-D-galactopyranoside], the minimal effective concentration in assay [3] is greater than 2000 µg/mL.

In the case of `CC(=O)N[C@H]1C(O)O[C@H](CO)[C@@H](O[C@@H]2O[C@H](CO)[C@H](O)[C@H](O)[C@H]2O)[C@@H]1O` (stereo partly drawn) [β-D-Galp-(1-4)-D-GNAc], the “removal of the bacterium from the surface” value in assay [5] is recorded as “effective removal of the bacterium from the surface”.

For the compound `OC[C@H]1O[C@@H](O[C@H]2[C@H](O)[C@@H](O)C(O)O[C@@H]2CO)[C@H](O)[C@@H](O)[C@H]1O` (stereo partly drawn) [β-D-Galp-(1-4)-D-Glc], the minimal effective concentration in assay [3] was greater than 5000 µg/mL.

`OC[C@H]1O[C@@H](OC[C@H]2OC(O)[C@H](O)[C@@H](O)[C@@H]2O)[C@H](O)[C@@H](O)[C@H]1O` (stereo partly drawn) [β-D-Galp-(1-6)-D-Glc]: in assay [3], the minimal effective concentration is greater than 5000 µg/mL.
